In brackets after ≈: the same amount, converted by molar mass.
Experiments:
[1] = molecular target: estrogen receptor (ERα) in CAMA-1 cells (Homo sapiens (Human), UniProt P03372); experiment: Western blotting assay, ER down-regulation in CAMA-1; format: cell-based; details: 100 nM compound, 48 h, normalised to 100 nM fulvestrant
Procedure: (§1) Cells were incubated with compounds (100 nM) or vehicle control (0.1% DMSO) for 48 h at 37° C., 5% CO2 before washing once with PBS and lysing with 80 μl lysis buffer (25 mM Tris/HCl, 3 mM EDTA, 3 mM EGTA, 50 mM NaF, 2 mM sodium orthovanadate, 0.27 M sucrose, 10 mM β-glycerophosphate, 5 mM sodium pyrophosphate, 0.5% TritonX-100, pH 6.8) on ice.
(§2) Samples were boiled for 10 min at 95° C. and then frozen at −20° C. until ready for use.
(§3) The blot was stained with Ponceau S (P7170, Sigma) and cut according to appropriate molecular weight markers.
(§4) Membranes were blocked for 1 hour at room temp in 5% Marvel (w/v) in phosphate-buffered saline containing 0.05% Tween™ 20 (PBS/Tween). Blots were then incubated with anti-ERα (SP1) rabbit monoclonal antibody (Thermofisher) diluted 1:1000 at 4° C. overnight (with gentle shaking) followed by several washes with PBS/Tween. […] All antibodies were made up in 5% Marvel (w/v) in PBS/Tween.
(§5) Down-regulation of the ERα receptor was normalised to the vehicle control (0% down-regulation) and the 100 nM fulvestrant control (100% down-regulation) run within the same gel.

[2] = molecular target: T1, Estrogen Receptor (ERα) in MCF-7 cells (Homo sapiens (Human), UniProt P03372); experiment: MCF-7 ER down-regulation assay (immuno-fluorescence); format: cell-based
T1 sequence (P03372 whole entry): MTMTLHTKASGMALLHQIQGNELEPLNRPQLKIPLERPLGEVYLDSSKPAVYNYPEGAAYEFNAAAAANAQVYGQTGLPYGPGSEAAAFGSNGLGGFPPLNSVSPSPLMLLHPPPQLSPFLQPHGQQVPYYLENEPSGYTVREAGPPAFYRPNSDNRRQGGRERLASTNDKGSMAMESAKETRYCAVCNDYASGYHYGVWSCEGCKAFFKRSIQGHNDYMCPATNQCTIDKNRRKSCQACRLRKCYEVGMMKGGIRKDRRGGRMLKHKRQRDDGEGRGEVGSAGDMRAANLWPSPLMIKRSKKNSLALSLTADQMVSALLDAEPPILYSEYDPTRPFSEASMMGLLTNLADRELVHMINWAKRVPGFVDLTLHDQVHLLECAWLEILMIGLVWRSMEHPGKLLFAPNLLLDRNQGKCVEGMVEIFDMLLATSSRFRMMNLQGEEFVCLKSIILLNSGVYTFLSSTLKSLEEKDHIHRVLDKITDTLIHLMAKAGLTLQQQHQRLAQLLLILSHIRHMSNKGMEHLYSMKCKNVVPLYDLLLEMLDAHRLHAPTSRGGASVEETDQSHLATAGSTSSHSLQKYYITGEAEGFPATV
Method in brief: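 Compounds dispensed acoustically from DMSO stocks onto MCF-7 cells; cells fixed 20 min at room temperature, then automated immunostaining for ERα with overnight incubation at 4° C. Read-out is mean total ER fluorescence intensity normalized to cell number (intensity per cell), with curve fitting for concentration-response values.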

[3] = Human plasma protein binding (equilibrium dialysis); format: in vitro ADME; details: dialysis 18 hours
Method in brief: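 Fraction unbound (fu %) in human plasma, from LC/MSMS of plasma and buffer sides (7-point plasma calibration) after 18 h rapid equilibrium dialysis. Single determinations, with compounds pooled up to 10 per plasma pool.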

[4] = Thermodynamic solubility (shake-flask); format: physicochemical; details: aqueous phosphate buffer, 25 °C, pH 7.4, aqueous buffer, thermodynamic from solid, aqueous phosphate buffer pH 7.4, 24 hours
Method in brief: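 Shake-flask method starting from 10 mM DMSO stocks, which are dried before use. Residue equilibrated 24 h at 25° C. in aqueous phosphate buffer, pH 7.4. Dissolved fraction separated and quantified by UPLC/MS/MS, with QC samples in each run.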

[5] = molecular target: T1, Estrogen Receptor (ERα) in MCF-7 cells; experiment: Western blotting assay, ER down-regulation in MCF-7; format: cell-based; details: 100 nM compound, 48 h, normalised to 100 nM fulvestrant
Procedure: as §1, §2, §3, §4, §5

[6] = log D (shake flask, 1-octanol/aqueous buffer); format: physicochemical
Method in brief: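 Distribution between 1-octanol and aqueous buffer at pH 7.4 was measured by shake flask, with compounds run in mixtures of ten. Relative concentrations in each phase were quantified by UPLC with quantitative MS. Caffeine served as a low-log D QC sample in all runs.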

hERG potassium channel = hERG potassium channel (Homo sapiens (Human), UniProt Q12809); experiment: hERG binding assay (automated patch clamp, CHO cells); format: cell-based; details: CHO cell line, Nanion Syncropatch 384PE
hERG potassium channel, sequence (Q12809 whole entry): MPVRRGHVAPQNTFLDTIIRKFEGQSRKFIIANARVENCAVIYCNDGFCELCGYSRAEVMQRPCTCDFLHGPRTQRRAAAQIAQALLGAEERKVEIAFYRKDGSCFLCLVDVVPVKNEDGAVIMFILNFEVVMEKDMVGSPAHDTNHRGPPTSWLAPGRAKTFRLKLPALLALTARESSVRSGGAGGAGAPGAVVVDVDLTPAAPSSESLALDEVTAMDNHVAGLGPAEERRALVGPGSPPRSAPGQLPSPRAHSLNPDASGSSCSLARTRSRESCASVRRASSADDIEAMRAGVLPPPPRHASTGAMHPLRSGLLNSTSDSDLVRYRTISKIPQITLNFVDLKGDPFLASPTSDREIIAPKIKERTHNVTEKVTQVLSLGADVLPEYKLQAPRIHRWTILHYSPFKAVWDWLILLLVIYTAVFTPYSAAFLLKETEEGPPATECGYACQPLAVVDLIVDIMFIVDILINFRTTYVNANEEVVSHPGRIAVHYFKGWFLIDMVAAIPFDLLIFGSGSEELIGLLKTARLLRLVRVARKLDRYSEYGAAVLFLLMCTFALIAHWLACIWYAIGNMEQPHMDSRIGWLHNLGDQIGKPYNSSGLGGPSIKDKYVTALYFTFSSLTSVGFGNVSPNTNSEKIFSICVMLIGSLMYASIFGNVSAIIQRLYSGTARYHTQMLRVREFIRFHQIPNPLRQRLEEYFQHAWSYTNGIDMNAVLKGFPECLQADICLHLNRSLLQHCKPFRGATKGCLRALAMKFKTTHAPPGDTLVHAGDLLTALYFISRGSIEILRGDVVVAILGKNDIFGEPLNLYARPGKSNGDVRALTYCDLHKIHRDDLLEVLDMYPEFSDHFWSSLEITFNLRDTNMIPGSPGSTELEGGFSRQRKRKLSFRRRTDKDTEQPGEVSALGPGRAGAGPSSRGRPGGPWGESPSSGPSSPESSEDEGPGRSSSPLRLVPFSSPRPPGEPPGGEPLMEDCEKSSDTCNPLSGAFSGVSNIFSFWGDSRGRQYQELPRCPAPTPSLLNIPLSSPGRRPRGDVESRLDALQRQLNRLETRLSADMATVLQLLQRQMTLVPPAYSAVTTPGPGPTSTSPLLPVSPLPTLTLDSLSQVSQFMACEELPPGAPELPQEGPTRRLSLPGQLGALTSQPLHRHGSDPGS
Method in brief: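 CHO cells on automated patch clamp; compounds tested in quadruplicate. Currents evoked every 15 s from −80 mV holding by a 500 ms step to 60 mV then 500 ms to −40 mV.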

[7] = molecular target: recombinant human Estrogen Receptor alpha ligand binding domain (ER alpha-LBD (GST)) (Homo sapiens (Human), UniProt P03372); experiment: ERα binding assay (LanthaScreen TR-FRET competition); details: TR-FRET, displacement of Fluormone ES2
recombinant human Estrogen Receptor alpha ligand binding domain (ER alpha-LBD (GST)), sequence (P03372 307-554): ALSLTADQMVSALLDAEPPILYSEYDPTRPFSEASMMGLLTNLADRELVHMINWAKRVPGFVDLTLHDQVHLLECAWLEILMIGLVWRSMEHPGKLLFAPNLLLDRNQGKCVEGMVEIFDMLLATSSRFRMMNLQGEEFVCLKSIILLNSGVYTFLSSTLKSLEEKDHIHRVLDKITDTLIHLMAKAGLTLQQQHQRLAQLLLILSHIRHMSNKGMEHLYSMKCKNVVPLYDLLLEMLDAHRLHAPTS
Method in brief: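 Competition binding to GST-tagged human ERα ligand-binding domain, read by LanthaScreen TR-FRET: Tb-anti-GST antibody labels the receptor and compounds displace a fluorescent tracer, lowering the signal. IC50 was taken from dose-response curve fitting.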

[8] = Human Caco-2 bidirectional permeability A to B and B to A; format: in vitro ADME; details: Caco-2, 2 hours, pH 7.4
Procedure: An automated assay was used to determine the bidirectional permeability (efflux and uptake) of compounds in Caco-2 cells carried out over 2 hours at pH 7.4.
The efflux ratio (ER) can be determined using the following equation: ER=Papp(B-A)/Papp(A-B) Where Papp (B-A) indicates the apparent permeability coefficient in basolateral to apical direction, and Papp (A-B) indicates the apparent permeability coefficient in apical to basolateral direction. Human Caco-2 Passive Permeability A to B Papp

[9] = 1-octanol/aqueous buffer, pH 7.4, pH 7.4, 1-octanol/aqueous buffer

estrogen receptor (ERα) in CAMA-1 cells, sequence (P03372 whole entry): as the sequence (P03372 whole entry) above

Row | SMILES | CAMA1 Western % ER deg vs Fv [1] | IC50 [2] | Human plasma protein binding (% free) [3] | solubility at 24 h [4] | MCF7 Western % ER deg vs Fv [5] | logD [6, 9] | IC50 (hERG potassium channel) | IC50 [7] | logD ([6]; pH 7.4, 1-octanol/aqueous buffer) | Papp at 2 h [8]
1 | C[C@@H]1Cc2c(ccc3[nH]ncc23)[C@@H](c2ccc(NC3CN(CCCF)C3)nc2F)N1CC(F)(F)F [Example 40, 6-fluoro-N-(1-(3-fluoropropyl)azetidin-3-yl)-5-((6S,8R)-8-methyl-7-(2,2,2-trifluoroethyl)-6,7,8,9-tetrahydro-3H-pyrazolo[4,3-f]isoquinolin-6-yl)pyridin-2-amine] | 120% | 0.1 nM | 6.4 % free | 479 µM (≈ 237 µg/mL) | 98% | 3.5 | 4500 nM | 1.3 nM | – | –
2 | C[C@@H]1Cc2c(ccc3[nH]ncc23)[C@@H](c2ccc(N(C)C3CN(CCCF)C3)cn2)N1CC(F)(F)F [Example 34, N-(1-(3-fluoropropyl)azetidin-3-yl)-N-methyl-6-((6S,8R)-8-methyl-7-(2,2,2-trifluoroethyl)-6,7,8,9-tetrahydro-3H-pyrazolo[4,3-f]isoquinolin-6-yl)pyridin-3-amine] | 82% | 0.22 nM | 15 % free | 471 µM (≈ 231 µg/mL) | 85% | – | 7700 nM | 1.9 nM | 3.2 | –
3 | CC(C)CN1[C@H](c2ccc(NC3CN(CCCF)C3)cn2)c2ccc3[nH]ncc3c2C[C@H]1C [Example 69, N-(1-(3-fluoropropyl)azetidin-3-yl)-6-((6S,8R)-7-isobutyl-8-methyl-6,7,8,9-tetrahydro-3H-pyrazolo[4,3-f]isoquinolin-6-yl)pyridin-3-amine] | 98% | 0.55 nM | 37 % free | > 1000 µM | 95% | 2.9 | 24000 nM | 8.9 nM | – | –
4 | C[C@@H]1Cc2c(ccc3[nH]nc(F)c23)[C@@H](c2ccc(NC3CN(CCCF)C3)cn2)N1CC(F)(F)F [Example 32] | 89% | – | 6.5 % free | 692 µM (≈ 342 µg/mL) | 89% | 3.5 | 14000 nM | – | – | 3.4 ×10⁻⁶ cm/s
5 | C[C@@H]1Cc2c(ccc3[nH]ncc23)[C@@H](c2ncc(OC3CN(CCCF)C3)cc2F)N1CC(F)(F)CO [Example 59, 2,2-difluoro-3-((6S,8R)-6-(3-fluoro-5-((1-(3-fluoropropyl)azetidin-3-yl)oxy)pyridin-2-yl)-8-methyl-3,6,8,9-tetrahydro-7H-pyrazolo[4,3-f]isoquinolin-7-yl)propan-1-ol] | 102% | 1.6 nM | 33 % free | 971 µM (≈ 493 µg/mL) | 104% | 2.4 | > 40000 nM | 7.2 nM | – | –
